{"source": "patent US20140044709A1", "about": "“TREATMENT OF HER2-POSITIVE CANCER WITH PACLITAXEL AND TRASTUZUMAB-MCC-DM1” (priority 2010, published 2014)", "key": {"[1]": {"tested_on": "patients with MBC", "settings": "single agent, cited from earlier work"}, "[2]": {"tested_on": "patients with HER2-positive MBC"}, "[3]": {"tested_on": "patients with HER2-positive MBC", "remark": "listed apart in the source", "source_text": "Patients with confirmed HER2-positive MBC whose disease had progressed on multiple lines of therapy, including HER2-directed therapy, were eligible.\nPreliminary data in 112 evaluable patients are also available from the Phase II study."}, "[4]": {"assay": "Pertuzumab PK studies (Phase Ia and II)", "format": "in vivo, human", "excerpt": "A two-compartment model adequately described the concentration-time data with a terminal half-life of approximately 17 days for a typical patient.\nPopulation PK modeling of data from Phase Ia and II studies supports the continued use of fixed non-weight based dosing in female patients."}, "[5]": {"tested_on": "patients with cancer", "assay": "Pooled Phase II trials of single-agent pertuzumab, safety", "format": "in vivo, human"}, "[6]": {"tested_on": "patients with cancer", "assay": "Completed Phase Ib combination studies of pertuzumab, LVEF", "format": "in vivo, human", "settings": "2/35 patients", "excerpt": "Grade 3-4 adverse events have been less frequently reported, with the more frequent events being Grade 3 diarrhea (5%), Grade 3 vomiting (2%), and Grade 3 nausea (<1%). Asymptomatic decreases in LVEF have been reported as adverse events in 14% of patients and were mainly (−70%) Grade 1 events."}, "[7]": {"tested_on": "patients with cancer", "assay": "Pertuzumab across all studies, symptomatic cardiac failure", "format": "in vivo, human", "settings": "4 of 842 patients across all studies", "excerpt": "Two of these patients had MBC and had received prior anthracyclines and two patients had ovarian cancer patients, one of whom had cardiac risk factors (hypertension/hyperlipidemia)."}, "[8]": {"settings": "subgroup with at least 6 months of follow-up or discontinued (n=76)"}, "[9]": {"settings": "pooled Phase II single agent (n=353), generally Grade 1-2"}}, "note": "Read-outs that look alike come from different tables or passages of the source.", "data": [{"compound": "CC(=O)O[C@H]1C(=O)[C@@]2(C)[C@H]([C@H](OC(=O)c3ccccc3)[C@]3(O)C[C@H](OC(=O)[C@H](O)[C@@H](NC(=O)c4ccccc4)c4ccccc4)C(C)=C1C3(C)C)[C@]1(OC(C)=O)CO[C@@H]1C[C@@H]2O", "note": "(relative stereo) [paclitaxel, β-(benzoylamino)-α-hydroxy-,6,12b-bis (acetyloxy)-12-(benzoyloxy)-2a,3,4,4a,5,6,9,10,11,12,12a,12b-dodecahydro-4,11-dihydroxy-4a,8,13,13-tetramethyl-5-oxo-7,11-methano-1H-cyclodeca(3,4)benz(1,2-b) oxet-9-ylester,(2aR-(2a-α,4-β,4a-β,6-β,9-α (α-R*,β-S*),11-α,12-α,12a-α,2b-α))-benzenepropanoic acid]", "values": [{"measurement": "response rates", "setting": "[1]; first-line treatment of MBC", "value": "29-63%"}, {"measurement": "response rates", "setting": "[1]; second-line treatment of MBC", "value": "21-56%"}]}, {"compound": "T-DM1", "values": [{"measurement": "responses", "setting": "[2]; 1.2 mg/kg weekly (n=3)", "value": "three"}, {"measurement": "responses", "setting": "[2]; 1.6 mg/kg weekly (n=3)", "value": "two"}, {"measurement": "responses", "setting": "[2]; 2.0 mg/kg weekly (n=3)", "value": "two"}, {"measurement": "ORR in patients with measurable disease and confirmed HER2 status by central review", "setting": "[2]; every 3-week schedule, 5/11", "value": 46, "unit": "%"}, {"measurement": "6-month clinical benefit rate (CR+PR+SD>6 months)", "setting": "[2]; every 3-week schedule, 13/24", "value": 54, "unit": "%"}, {"measurement": "objective response rate (ORR)", "setting": "[2]; every-3-week schedule, 24 patients", "value": 21, "unit": "%"}, {"measurement": "responses confirmed according to RECIST", "setting": "[2]; every-3-week schedule, of six responses", "value": "five"}, {"measurement": "ORR in patients with measurable disease and confirmed HER2 status by central review", "setting": "[2]; weekly schedule, 7/15", "value": 47, "unit": "%"}, {"measurement": "6-month clinical benefit rate (CR+PR+SD>6 months)", "setting": "[2]; weekly schedule, 18/28", "value": 64, "unit": "%"}, {"measurement": "objective response rate (ORR)", "setting": "[2]; weekly schedule, 28 patients", "value": 54, "unit": "%"}, {"measurement": "responses confirmed according to RECIST", "setting": "[2]; weekly schedule, of 15 responses", "value": 13}, {"measurement": "objective responses confirmed by follow-up imaging", "setting": "[3]; 107 efficacy-evaluable patients, 29 responses", "value": 27.1, "unit": "%"}, {"measurement": "objective responses (CRs and PRs)", "setting": "[3]; 107 efficacy-evaluable patients, 42 responses", "value": 39.3, "unit": "%"}, {"measurement": "response rate", "setting": "[3]; [8]", "value": 43.4, "unit": "%"}, {"measurement": "response rate confirmed by follow-up imaging", "setting": "[3]; [8]", "value": 38.2, "unit": "%"}]}, {"compound": "pertuzumab: humanized monoclonal antibody that binds to extracellular domain II of HER2 and blocks its ability to dimerize with other HER receptors", "values": [{"measurement": "attaining steady-state trough and peak concentrations", "setting": "[4]; loading dose 840 mg followed by 420 mg every 3 weeks", "value": "by the second cycle"}, {"measurement": "terminal half-life", "setting": "[4]; two-compartment model, typical patient", "value": "approximately 17 days"}, {"measurement": "asymptomatic decreases in LVEF reported as adverse events", "setting": "[5]; % of patients", "value": 14, "unit": "%"}, {"measurement": "LVEF declines of ≧10% to <50%", "setting": "[5]; completed Phase II single-agent studies, 21/302 patients", "value": 7, "unit": "%"}, {"measurement": "Grade 3 diarrhea", "setting": "[5]; pooled Phase II single agent", "value": 5, "unit": "%"}, {"measurement": "Grade 3 nausea", "setting": "[5]; pooled Phase II single agent", "value": "< 1", "unit": "%"}, {"measurement": "Grade 3 vomiting", "setting": "[5]; pooled Phase II single agent", "value": 2, "unit": "%"}, {"measurement": "abdominal pain", "setting": "[5]; [9]", "value": 24, "unit": "%"}, {"measurement": "diarrhea", "setting": "[5]; [9]", "value": 58, "unit": "%"}, {"measurement": "fatigue", "setting": "[5]; [9]", "value": 32, "unit": "%"}, {"measurement": "nausea", "setting": "[5]; [9]", "value": 31, "unit": "%"}, {"measurement": "rash", "setting": "[5]; [9]", "value": 17, "unit": "%"}, {"measurement": "vomiting", "setting": "[5]; [9]", "value": 22, "unit": "%"}, {"measurement": "tolerability", "setting": "[5]; single agent, five Phase II studies", "value": "well tolerated"}, {"measurement": "LVEF declines of ≧10% to <50%", "setting": "[6]", "value": 6, "unit": "%"}, {"measurement": "symptomatic cardiac failure events", "setting": "[7]", "value": 0.5, "unit": "%"}]}]}
